Series [1] concerns FeCl3-induced thrombus in femoral artery. Kind of series: Antithrombotic effect in rat FeCl3-induced thrombus model. Type of series: in vivo. The note with it: male Wistar rats. Here is the method:
Methylcellulose (METOLOSE, SM-400, Shin-Etsu Chemical Co., Ltd.) was dissolved in distilled water, to prepare a 0.5 w/v% methylcellulose aqueous solution. The 0.5 w/v% methylcellulose aqueous solution was added to the compound A, to prepare a 10 mg/mL suspension of compound A in the 0.5 w/v% methylcellulose aqueous solution. • (b) Beraprost Sodium The 0.5 w/v% methylcellulose aqueous solution was added to beraprost sodium, to prepare a 1.0 mg/mL aqueous solution of beraprost sodium in the 0.5 w/v% methylcellulose aqueous solution. • (c) Cilostazol The 0.5 w/v% methylcellulose aqueous solution was added to cilostazol, to prepare a 150 or 50 mg/mL suspension of cilostazol. Urethane (Wako Pure Chemical Industries, Ltd.) was dissolved in saline (Otsuka Pharmaceutical Factory, Inc.) to prepare a solution of 0.3 g/mL. The urethane saline solution was subcutaneously administered to rats at 4 mL per 1 kg of body weight (1.2 g/kg) to anesthetize them. […] Male Wistar rats aged 9 to 10 weeks were used as rats. The abdomen of the rat was incised to expose the duodenum, and drugs were injected 2 to 3 mm downstream from the vicinity of the gastric-duodenal boundary using a 26G injection needle and syringe. The compound A and beraprost sodium were administered at a dose of 1 mL/kg, and cilostazol was administered at a dose of 2 mL/kg. The skin on the right thigh of the rat was incised to expose the femoral artery, and the vein and nerve were dissected. A parafilm was placed under the dissected femoral artery to completely separate the femoral artery, vein, and nerve. A laser Doppler blood flowmeter (ALF21, Advance) probe was placed on the femoral artery to start measuring the blood flow (mL/min/g). 60 minutes after the administration for the compound A-administered group, 30 minutes after the administration for the beraprost sodium-administered group, and 120 minutes after the administration for the cilostazol-administered group, a filter paper (2 mm×5 mm) impregnated with a 10 w/w% FeCl3 aqueous solution was placed on the femoral artery, and changes in blood flow were measured using a biometric data processing system (FLO-WB, Omega Wave Co., Ltd.) and recorded.

In series [2] the test system is ischemic gait disturbance caused by ligation of the iliac artery. Kind of series: Gait improvement in rat ischemic gait disturbance model (iliac artery ligation, treadmill). It is filed as in vivo. The note with it: male Wistar rats, 3 mg/kg orally twice a day for 9 days from one day after surgery; measured 3, 7 and 10 days after surgery; p<0.01 vs control. Here is the method:
Wistar rats (male, 7 week-old) (available from CHARLES RIVER LABORATORIES JAPAN, INC.) were subjected to gait training using a treadmill (MK-680, available from Muromachi Kikai Co., Ltd.) for three consecutive days-6 days before surgery, 5 days before surgery, and 4 days before surgery. On the day before surgery, the pre-value of the walking distance was measured, the animals were divided into groups, and sham surgery or iliac artery ligation surgery described in i) below was performed. […] Walking time was measured 3 days, 7 days and 10 days after the surgery. Based on the measured walking time, the walking distance was calculated. • i) Method of Iliac Artery Ligation Surgery Rats were anesthetized by intraperitoneal administration of 50 mg/kg pentobarbital sodium (Somnopentyl®, Schering-Plough Animal Health). […] The ligation of the iliac artery was performed by the data manager and this information was not disclosed to the gait tester until the study was completed. • ii) Walking Time Measurement Method The speed of the treadmill belt was increased from 15 m/min to 35 m/min by increments of 5 m/min in each 3 minutes, and the time the rat got on the electrical stimulation plate at the rear end of the belt was recorded as the dropout time. […] After the measurement, the dropout time was recorded in the gait test record. […]

The test system of series [3] is gait disturbance in patient with arteriosclerosis obliterans. The series can be described thus: Improvement of gait disturbance in patients with arteriosclerosis obliterans (placebo-controlled, double-blind study). Type of series: in vivo, human. The conditions noted are these: Japanese patients, 0.1 to 1.6 mg twice a day for 24 to 36 weeks. Here is the method:
As a placebo-controlled, double-blind comparative study, Japanese patients with arteriosclerosis obliterans (selected by resting ABI, or the like) received placebo or selexipag (which is compound A) at 0.1 to 1.6 mg twice a day for 24 to 36 weeks (dose adjustment period: 8 to 20 weeks, dose maintenance period: 16 weeks).

Turning to `CC#CCC(C)[C@H](O)/C=C/[C@@H]1[C@H]2c3cccc(CCCC(=O)O)c3O[C@H]2C[C@H]1O` (mixture of isomers) [beraprost sodium], the vascular occlusion time result is recorded as “not prolonged” in series [1] (0.3 mg/kg intraduodenal, 30 minutes before induction) and “about 43 minutes” in series [1] (1 mg/kg intraduodenal, administration 30 minutes before induction, vehicle control about 12 to 15 minutes). For the same molecule, in series [1] (0.3 mg/kg intraduodenal, observed over time), the “reduction in blood pressure” value amounted to 25%.
`CC(C)N(CCCCOCC(=O)NS(C)(=O)=O)c1cnc(-c2ccccc2)c(-c2ccccc2)n1` [compound A, 2-{4-[N-(5,6-diphenylpyrazine-2-yl)-N-isopropylamino]butyloxy}-N-(methylsulfonyl) acetamide]: the “improvement of gait disturbance (walking distance, FIG. 1)” value in series [2] was “significantly improved gait disturbance”. In addition, in series [3], the “improvement of gait disturbance (treadmill, maximum walking time, Gartner method)” value is “Improvement of patient's gait disturbance was confirmed”. The vascular occlusion time entry in series [1] (10 mg/kg intraduodenal, administration 60 minutes before induction, vehicle control about 12 to 15 minutes) is “about 22 minutes”.
In the case of `O=C1CCc2cc(OCCCCc3nnnn3C3CCCCC3)ccc2N1` [cilostazol], in series [1] (150 or 50 mg/mL suspension at 2 mL/kg intraduodenal, 120 minutes before induction), the vascular occlusion time entry is on record as “Neither dose of cilostazol prolonged the occlusion time”.

The values above are taken from patent US20240197724A1, “THERAPEUTIC AGENT FOR GAIT DISTURBANCE” (NIPPON SHINYAKU CO., LTD., priority 2021, published 2024).
